The inhibition is the drop in the measured response relative to a control, in per cent.

This passage reports inhibition results from ChEMBL document CHEMBL4190187, “Discovery of pyrazolopyrimidine derivatives as novel inhibitors of ataxia telangiectasia and rad3 related protein (ATR)” (Bioorg Med Chem Lett, 2017).

For test [1], the target named is Serine/threonine-protein kinase 10 (Homo sapiens) (UniProt O94804). Description: Inhibition of recombinant human LOK (1 to 348 residues) at 1 uM using RLGRDKYKTLRQIRQ as substrate after 40 mins in presence of [gamma-33P]ATP by scintillation counting method.
Serine/threonine-protein kinase 10 (Homo sapiens), sequence (O94804 whole entry, looked up, the tested form may be a part): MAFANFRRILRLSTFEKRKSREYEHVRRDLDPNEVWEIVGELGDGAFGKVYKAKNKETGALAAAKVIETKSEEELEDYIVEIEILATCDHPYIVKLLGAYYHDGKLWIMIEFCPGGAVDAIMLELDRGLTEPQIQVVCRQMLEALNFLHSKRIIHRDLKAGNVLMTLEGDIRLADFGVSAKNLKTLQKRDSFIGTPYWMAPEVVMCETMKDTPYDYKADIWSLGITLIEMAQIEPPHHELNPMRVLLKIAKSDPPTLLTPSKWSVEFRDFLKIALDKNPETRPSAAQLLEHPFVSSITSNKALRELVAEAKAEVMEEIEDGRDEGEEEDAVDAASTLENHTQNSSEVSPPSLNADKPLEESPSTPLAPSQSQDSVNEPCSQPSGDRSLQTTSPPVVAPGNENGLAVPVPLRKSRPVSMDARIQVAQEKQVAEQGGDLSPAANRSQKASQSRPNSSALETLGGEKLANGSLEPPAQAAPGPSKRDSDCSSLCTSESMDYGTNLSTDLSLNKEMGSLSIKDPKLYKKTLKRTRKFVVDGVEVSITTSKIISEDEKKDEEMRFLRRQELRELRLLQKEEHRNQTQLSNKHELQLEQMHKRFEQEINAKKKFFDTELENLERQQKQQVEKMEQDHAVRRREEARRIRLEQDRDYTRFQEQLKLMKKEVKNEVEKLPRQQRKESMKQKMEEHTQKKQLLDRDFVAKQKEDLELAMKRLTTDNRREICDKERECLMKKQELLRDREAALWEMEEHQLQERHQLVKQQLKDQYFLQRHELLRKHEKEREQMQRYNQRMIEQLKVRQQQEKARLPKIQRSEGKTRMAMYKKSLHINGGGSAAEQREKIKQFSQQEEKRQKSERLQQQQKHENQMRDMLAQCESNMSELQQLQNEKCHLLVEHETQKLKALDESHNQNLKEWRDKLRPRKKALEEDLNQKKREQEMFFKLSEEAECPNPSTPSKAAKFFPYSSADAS
For test [2], the system named is Fibroblast growth factor receptor 2 (Homo sapiens), P21802 [N549H]. Description: Inhibition of recombinant human FGFR2 N549H mutant (456 to 770 residues) at 1 uM using GGEEEEYFELVKKKK as substrate after 40 mins in presence of [gamma-33P]ATP by scintillation counting method.
Test [3] concerns the target Mitogen-activated protein kinase 12 (Homo sapiens) (UniProt P53778). Description: Inhibition of recombinant full-length human SAPK3 at 1 uM using myelin basic protein as substrate after 40 mins in presence of [gamma-33P]ATP by scintillation counting method.
In test [4] the target is MAP/microtubule affinity-regulating kinase 3 (Homo sapiens) (UniProt P27448). Description: Inhibition of recombinant full-length human MARK3 at 1 uM using KKKVSRSGLYRSPSMPENLNRPR as substrate after 40 mins in presence of [gamma-33P]ATP by scintillation counting method.
MAP/microtubule affinity-regulating kinase 3 (Homo sapiens), sequence (P27448 whole entry, looked up): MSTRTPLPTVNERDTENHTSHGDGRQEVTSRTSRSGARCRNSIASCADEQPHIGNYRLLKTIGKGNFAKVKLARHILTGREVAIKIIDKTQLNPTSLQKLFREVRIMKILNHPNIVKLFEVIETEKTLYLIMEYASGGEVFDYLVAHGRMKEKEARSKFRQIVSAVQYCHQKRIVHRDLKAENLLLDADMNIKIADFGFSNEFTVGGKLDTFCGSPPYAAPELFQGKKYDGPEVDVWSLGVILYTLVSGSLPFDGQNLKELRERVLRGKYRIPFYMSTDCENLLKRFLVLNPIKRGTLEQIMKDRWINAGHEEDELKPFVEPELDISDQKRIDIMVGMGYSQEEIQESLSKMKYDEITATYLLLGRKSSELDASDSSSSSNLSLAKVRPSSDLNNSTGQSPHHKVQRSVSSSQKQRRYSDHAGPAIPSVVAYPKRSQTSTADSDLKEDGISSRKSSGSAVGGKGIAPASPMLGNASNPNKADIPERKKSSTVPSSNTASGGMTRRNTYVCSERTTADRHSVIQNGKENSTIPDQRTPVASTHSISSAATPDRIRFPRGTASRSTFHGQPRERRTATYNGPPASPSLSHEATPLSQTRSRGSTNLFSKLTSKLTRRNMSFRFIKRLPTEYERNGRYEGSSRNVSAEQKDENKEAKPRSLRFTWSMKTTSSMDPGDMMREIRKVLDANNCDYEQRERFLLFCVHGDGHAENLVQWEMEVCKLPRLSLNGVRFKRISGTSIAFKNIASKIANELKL
Test [5] has as its target Mitogen-activated protein kinase 1 (Homo sapiens) (UniProt P28482). Description: Inhibition of recombinant full-length human MAPK1 at 1 uM using myelin basic protein as substrate after 40 mins in presence of [gamma-33P]ATP by scintillation counting method.
For test [6], the target named is Serine/threonine-protein kinase haspin (Homo sapiens) (UniProt Q8TF76). Description: Inhibition of recombinant human Haspin (471 to end residues) at 1 uM using RARTLSFAEPG as substrate after 40 mins in presence of [gamma-33P]ATP by scintillation counting method.
Serine/threonine-protein kinase haspin (Homo sapiens), sequence (Q8TF76 whole entry, the tested form may be a part): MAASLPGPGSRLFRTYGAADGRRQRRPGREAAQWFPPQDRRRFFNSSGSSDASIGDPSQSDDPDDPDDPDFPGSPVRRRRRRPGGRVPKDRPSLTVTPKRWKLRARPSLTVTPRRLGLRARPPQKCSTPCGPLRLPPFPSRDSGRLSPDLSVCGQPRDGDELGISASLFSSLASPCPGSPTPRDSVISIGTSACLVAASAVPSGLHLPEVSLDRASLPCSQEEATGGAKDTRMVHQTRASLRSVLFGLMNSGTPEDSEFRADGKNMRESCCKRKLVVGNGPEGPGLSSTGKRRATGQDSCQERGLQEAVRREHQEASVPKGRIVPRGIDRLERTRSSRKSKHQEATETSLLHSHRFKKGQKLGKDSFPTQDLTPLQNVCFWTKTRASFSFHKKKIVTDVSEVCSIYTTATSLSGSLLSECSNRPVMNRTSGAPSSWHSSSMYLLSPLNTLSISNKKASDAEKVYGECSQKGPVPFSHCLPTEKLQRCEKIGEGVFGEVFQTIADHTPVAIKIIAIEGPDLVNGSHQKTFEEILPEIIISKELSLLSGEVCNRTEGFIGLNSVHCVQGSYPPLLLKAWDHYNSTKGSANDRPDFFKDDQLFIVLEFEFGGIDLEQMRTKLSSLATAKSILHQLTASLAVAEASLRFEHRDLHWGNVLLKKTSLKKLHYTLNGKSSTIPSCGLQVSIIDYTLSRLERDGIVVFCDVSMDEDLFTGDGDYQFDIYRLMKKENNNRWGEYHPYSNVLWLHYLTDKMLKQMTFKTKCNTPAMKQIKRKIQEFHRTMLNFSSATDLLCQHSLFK
Test [7] deals with Discoidin domain-containing receptor 2 (Homo sapiens) (UniProt Q16832). Description: Inhibition of recombinant human DDR2 (467 to end residues) at 1 uM using KKSRGDYMTMQIG as substrate after 40 mins in presence of [gamma-33P]ATP by scintillation counting method.
Discoidin domain-containing receptor 2 (Homo sapiens), sequence (Q16832 whole entry, the tested form may be a part): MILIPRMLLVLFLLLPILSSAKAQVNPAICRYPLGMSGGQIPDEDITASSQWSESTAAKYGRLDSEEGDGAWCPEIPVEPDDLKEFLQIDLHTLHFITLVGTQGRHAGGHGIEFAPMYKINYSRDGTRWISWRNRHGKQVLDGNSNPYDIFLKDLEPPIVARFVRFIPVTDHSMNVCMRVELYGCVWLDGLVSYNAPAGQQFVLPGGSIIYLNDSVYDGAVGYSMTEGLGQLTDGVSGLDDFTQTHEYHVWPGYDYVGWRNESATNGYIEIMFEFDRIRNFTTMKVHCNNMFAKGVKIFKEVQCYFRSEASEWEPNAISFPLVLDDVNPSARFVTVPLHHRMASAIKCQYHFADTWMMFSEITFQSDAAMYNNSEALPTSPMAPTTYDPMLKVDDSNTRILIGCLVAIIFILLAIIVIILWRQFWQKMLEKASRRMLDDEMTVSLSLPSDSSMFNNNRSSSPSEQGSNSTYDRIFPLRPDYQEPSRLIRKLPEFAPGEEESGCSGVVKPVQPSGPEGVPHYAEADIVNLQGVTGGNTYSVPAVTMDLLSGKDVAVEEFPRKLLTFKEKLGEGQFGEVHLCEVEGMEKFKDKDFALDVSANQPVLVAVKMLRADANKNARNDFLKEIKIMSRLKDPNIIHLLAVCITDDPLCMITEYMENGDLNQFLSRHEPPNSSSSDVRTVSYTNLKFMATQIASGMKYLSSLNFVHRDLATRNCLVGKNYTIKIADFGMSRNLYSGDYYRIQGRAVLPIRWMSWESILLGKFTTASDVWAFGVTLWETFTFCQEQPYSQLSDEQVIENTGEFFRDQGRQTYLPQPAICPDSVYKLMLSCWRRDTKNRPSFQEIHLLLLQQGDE
The target of test [8] is SRSF protein kinase 3 (Homo sapiens) (UniProt Q9UPE1). Description: Inhibition of recombinant full-length human MSSK1 at 1 uM using ERMRPRKRQGSVRRRV as substrate after 40 mins in presence of [gamma-33P]ATP by scintillation counting method.
SRSF protein kinase 3 (Homo sapiens), sequence (Q9UPE1 whole entry): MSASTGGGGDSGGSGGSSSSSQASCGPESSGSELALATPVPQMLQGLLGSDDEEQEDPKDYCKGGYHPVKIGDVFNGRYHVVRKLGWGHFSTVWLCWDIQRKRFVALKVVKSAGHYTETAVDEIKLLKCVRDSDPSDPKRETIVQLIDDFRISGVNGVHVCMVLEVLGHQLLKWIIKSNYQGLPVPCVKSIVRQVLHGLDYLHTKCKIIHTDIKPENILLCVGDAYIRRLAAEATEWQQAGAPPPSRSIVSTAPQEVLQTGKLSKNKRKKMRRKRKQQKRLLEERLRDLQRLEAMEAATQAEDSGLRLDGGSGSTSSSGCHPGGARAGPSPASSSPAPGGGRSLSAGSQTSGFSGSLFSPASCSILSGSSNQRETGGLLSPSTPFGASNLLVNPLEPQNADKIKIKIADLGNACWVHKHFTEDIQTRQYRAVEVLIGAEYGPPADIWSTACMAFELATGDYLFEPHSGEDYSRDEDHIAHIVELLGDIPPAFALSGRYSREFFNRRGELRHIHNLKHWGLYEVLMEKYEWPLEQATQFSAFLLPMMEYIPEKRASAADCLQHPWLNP

Mitogen-activated protein kinase 1 (Homo sapiens), sequence (P28482 whole entry): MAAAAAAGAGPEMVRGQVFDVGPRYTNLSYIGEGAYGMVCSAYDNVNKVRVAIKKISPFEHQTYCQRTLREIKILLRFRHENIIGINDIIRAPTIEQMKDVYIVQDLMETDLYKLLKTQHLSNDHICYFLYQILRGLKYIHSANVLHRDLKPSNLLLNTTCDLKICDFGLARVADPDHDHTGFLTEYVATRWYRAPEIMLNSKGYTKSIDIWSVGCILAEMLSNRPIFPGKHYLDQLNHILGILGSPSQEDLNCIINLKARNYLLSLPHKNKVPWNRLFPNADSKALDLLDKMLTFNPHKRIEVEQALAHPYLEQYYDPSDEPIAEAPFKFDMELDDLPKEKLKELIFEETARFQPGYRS
Mitogen-activated protein kinase 12 (Homo sapiens), sequence (P53778 whole entry): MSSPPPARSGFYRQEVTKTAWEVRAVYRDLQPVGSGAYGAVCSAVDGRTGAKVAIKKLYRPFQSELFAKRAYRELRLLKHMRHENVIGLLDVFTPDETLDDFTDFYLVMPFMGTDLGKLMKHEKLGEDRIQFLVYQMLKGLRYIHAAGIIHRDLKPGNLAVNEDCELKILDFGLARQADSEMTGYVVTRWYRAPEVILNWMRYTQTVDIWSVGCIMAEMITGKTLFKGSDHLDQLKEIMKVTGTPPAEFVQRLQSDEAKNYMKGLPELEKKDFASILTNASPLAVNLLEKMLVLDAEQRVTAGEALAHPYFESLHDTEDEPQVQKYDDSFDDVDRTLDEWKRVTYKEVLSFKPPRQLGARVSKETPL

With `CS(=O)(=O)c1ccc(-n2nc(-c3cnc4[nH]ccc4c3)c3c(N)ncnc32)cc1`, the inhibition was -5% in test [1]; 70% in test [2]; 2% in test [3]; 4% in test [4]; 2% in test [5]; -9% in test [6]. Further, the inhibition was 4% in test [7] and -8% in test [8].
